The text below walks through data of PMC4342090, “A novel inhibitor of Plasmodium falciparum spermidine synthase: a twist in the tail” (Malaria Journal, 2015).

Entries after “also recorded” stand apart in the source; their conditions may differ. Where two headings read alike, the source gives them in different places. Peptide text beside a SMILES is read from it.

Data set [1] addresses T1, PfSpdS (Plasmodium falciparum, UniProt Q8II73). The note with it: cited from earlier work; for IC50: P. falciparum, read-out: Enzyme inhibition, IC50.
Data set [2] has as its system mammalian SpdS. The note with it: cited from earlier work; for IC50: Mammalian, read-out: Enzyme inhibition, IC50.
Data set [3] deals with T1, PfSpdS. The data set is described as follows: biochemical. The note with it: for inhibition at 100 µM: read-out: % Inhibition (at 100 μM); for fold difference in IC50 between compound 8 and compound 9: PfSpdS; for pseudo-substrate for PfSpdS: unpublished results of the authors. Type of data set: biochemical.
Protocol: A 29 amino acid N-terminus deletion mutant of PfSpdS cloned into pTRCHisB (Invitrogen) was expressed in E. coli BLR (DE3), purified and assayed as described by Haider et al. [18]. […] Stock solutions of the inhibitors were prepared in dddH2O. For the 100 μM assays, 1 μg purified PfSpdS, 50 μM RS-dcAdoMet, 100 nCi [2,3-^3H] putrescine hydrochloride (60 Ci/mmol; American Radiolabelled Chemicals, Inc, Minnesota, USA) and 50 μM unlabelled putrescine dihydrochloride (Sigma) were used. […] All inhibition assays were performed in triplicate.
Data set [4] relates to mammalian SpdS. The data set is described as follows: Mammalian spermidine synthase enzyme inhibition. Format: biochemical.
Data set [5] deals with mammalian spermine synthase. Also noted: method as in Shirahata et al. [22]. The settings on record: ref Shirahata et al. [22], cited from earlier work.
Data set [6] deals with the molecule itself. The data set is described as follows: crystal structure; hanging drop vapour diffusion, 293 K; 25% PEG3350, 0.1 M MES pH 5.6, 0.1 M (NH4)2SO4; protein pre-incubated with 2.5 mM compound 8 and MTA; space group C121, three molecules in the asymmetric unit; interface analysed with PISA.
The mark [7] stands for this setting: ref Lakanen et al. [21], Pegg et al. [38].
[8] abbreviates: 100 μM compound, PfSpdS activity inhibited compared to untreated enzyme, mean ± SEM, 100 µM.

T1 sequence (Q8II73 entry or part of it): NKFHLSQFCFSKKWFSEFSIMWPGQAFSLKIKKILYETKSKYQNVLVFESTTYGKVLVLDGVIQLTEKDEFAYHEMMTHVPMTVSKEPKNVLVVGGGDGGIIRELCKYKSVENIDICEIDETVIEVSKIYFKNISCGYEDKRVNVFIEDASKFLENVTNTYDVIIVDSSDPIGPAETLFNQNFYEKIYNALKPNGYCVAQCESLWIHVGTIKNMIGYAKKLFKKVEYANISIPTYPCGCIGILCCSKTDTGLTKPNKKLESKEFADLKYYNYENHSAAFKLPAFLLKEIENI

Turning to `C=CCCCN` [APE, 5-amino-1-pentene], the values for the IC50 on PfSpdS [1] (ref Haider et al. [18]) and with mammalian SpdS [2] (ref Goda et al. [39]) were 6.5 ± 2.1 µM and 1.7 µM, respectively.
For the molecule `CN1CCC(N)CC1` [Compound 2, trans-4-amino-1-methylpiperidine], the inhibition at 100 µM on PfSpdS [3] (100 μM compound, PfSpdS activity inhibited compared to untreated enzyme, mean ± SEM) amounted to 6.9 ± 5.8%.
As to `NCCCCCC(CCN)SCC1OC(n2cnc3c(N)ncnc32)C(O)C1O` (stereo not shown) [AdoDATO, S-adenosyl-1,8-diamino-3-thio-octane], the IC50 was 8.5 µM at PfSpdS [1] (ref Dufe et al. [20]) and 0.05 to 0.1 µM in the data set with mammalian SpdS [2] (setting [7]). The “fold lower IC50 for mammalian SpdS compared to the P. falciparum enzyme” value in the data set on mammalian SpdS [4] (ref [18],[20],[38]) stood at 170 fold. In the data set on mammalian SpdS [4] (ref [21],[38]), the “fold less efficient inhibitor of mammalian SpdS than adenosylspermidine” value was 3-7 fold.
Consider `CN1CCN(CCC(=O)NNC=C2C=CC(=O)C=C2O)CC1` [Compound 5, N’-[(2-hydroxy-4-oxocyclohexa-2,5-dien-1-ylidene)methyl]-3-(4-methylpiperazine-1,4-diium-1-yl)-propanehydrazide], for which the “% Inhibition (at 100 μM)” value at PfSpdS [3] (setting [8]) is given as “No Inhibition”; on PfSpdS [3] (100 μM compound, PfSpdS activity inhibited compared to untreated enzyme, mean ± SEM, listed as compound 5, 100 µM), “neither compound showed reduction in PfSpdS activity”.
As for `NC1CCCCC1` [Cyclohexylamine], the IC50 at PfSpdS [1] (ref Haider et al. [18]) was 19.7 ± 3.1 µM; in the data set with mammalian SpdS [2] (ref Shirahata et al. [22]), 8.1 µM.
Consider `NCCCNC1CCCCC1` [Compound 9, N-(3-aminopropyl)-cyclohexylamine], for which the “inhibition of mammalian spermine synthase” value in data set [5] is recorded as “inhibitor”. The “inhibition of mammalian spermine synthase” value in data set [5] (listed as compound 9) was “potent inhibitor”. Moreover, at PfSpdS [3], the half-maximal inhibitory concentration (IC50) stood at 7.4 ± 2.4 µM; affinity was put at a Ki of 2.8 µM; the “fold difference in IC50 between compound 8 and compound 9” value is recorded as 100 fold; the inhibition at 100 µM came to 88.3 ± 1.2%. For the same molecule, the “pseudo-substrate for PfSpdS” value at PfSpdS [3] was “no evidence was found”. Moreover, on PfSpdS [3] (between compound and putrescine, preliminary kinetic experiments), the type of inhibition result was “mixed-type competitive inhibition”. In the data set with mammalian SpdS [2] (ref Shirahata et al. [22]), the “inhibition of mammalian SpdS” value was “does not inhibit”. Further, the “inhibition of mammalian SpdS” value with mammalian SpdS [2] (ref Shirahata et al. [22], listed as compound 9) was “did not inhibit and not”.
Regarding `C[C@H]1CC[C@H](N)CC1` [4MCHA, trans-4-methylcyclohexylamine], the inhibition at 100 µM at PfSpdS [3] came out at 95.3 ± 0.4%. Also, the IC50 on PfSpdS [1] (ref Haider et al. [18]) was 1.4 ± 0.1 µM; with mammalian SpdS [2] (setting [7]), 1.7 µM.
As for 5′-methylthioadenosine [MTA], the IC50 on PfSpdS [1] (ref Haider et al. [18]) is 159 ± 27 µM.
For `NCCCN[C@H]1CC[C@H](N)CC1` [Compound 8, N-(3-aminopropyl)-trans-cyclohexane-1,4-diamine], at PfSpdS [3], 619 ± 144 µM corresponded to half-maximal inhibition (IC50); the “fold difference in IC50 between compound 8 and compound 9” value came out at 100 fold; the inhibition at 100 µM worked out at 12.7 ± 9.1%; the “pseudo-substrate for PfSpdS” value was “acts as a pseudo-substrate”.
`NCCCC[C@H](NC(=O)[C@@H](N)Cc1ccc(O)cc1)C(N)=O` [Compound 3] (H-Tyr-Lys-NH2): the “% Inhibition (at 100 μM)” value on PfSpdS [3] (setting [8]) is given as “No Inhibition; also recorded: did not inhibit”.
Regarding `CN(C[C@H](O)CN)C[C@H](O)CN1CCCCC1` [Compound 6, [(2R)-3-azaniumyl-2-hydroxypropyl]-[(2S)-2-hydroxy-3-piperidin-1-ium-1-ylpropyl]-methylazanium], the “% Inhibition (at 100 μM)” value at PfSpdS [3] (setting [8]) is reported as “No Inhibition”; at PfSpdS [3] (100 μM compound, PfSpdS activity inhibited compared to untreated enzyme, mean ± SEM, listed as compound 6, 100 µM), “neither compound showed reduction in PfSpdS activity”.
Turning to `C[S+](CCCN)C[C@H]1O[C@@H](n2cnc3c(N)ncnc32)[C@H](O)[C@@H]1O` (stereo partly shown) [dcAdoMet, decarboxylated S-adenosylmethionine], the Km at PfSpdS [1] (P. falciparum enzyme, ref [18],[20],[38], read-out: Km value of the enzyme for dcAdoMet) was 35 µM; in the data set on mammalian SpdS [2] (mammalian enzyme, ref [18],[20],[38], read-out: Km value of the enzyme for dcAdoMet) it was 7 to 25 µM.
Consider `NCCCC[C@H](NC(=O)[C@@H](N)CCCCN)C(=O)Nc1ccc2ccccc2c1` [Compound 7, [(2S)-6-azaniumyl-1-[[(2S)-6-azaniumyl-1-(naphthalen-2-ylamino)-1-oxohexan-2-yl]amino]-1-oxohexan-2-yl]azanium], for which the “% Inhibition (at 100 μM)” value at PfSpdS [3] (setting [8]) was “No Inhibition”; at PfSpdS [3] (100 μM compound, PfSpdS activity inhibited compared to untreated enzyme, mean ± SEM, listed as compound 7, 100 µM), “showed no inhibition”.
Turning to `NCCCN1CCN(CCCN)CC1` [Compound 4, 3-[4-(3-azaniumylpropyl)piperazine-1,4-diium-1-yl]propylazanium], the “% Inhibition (at 100 μM)” value at PfSpdS [3] (setting [8]) is recorded as “No Inhibition; also recorded: did not inhibit”.
In the case of `N[C@H]1CC[C@H](N)CC1` [trans-1,4-diaminocyclohexane], the “pseudo-substrate for mammalian SpdS” value in the data set with mammalian SpdS [2] (ref [22]) was ~ 12%.
As to `CC1CCN(CCCN)CC1` [Compound 1, 1-(3-ammoniopropyl)-4-methylpiperidin-1-ium], the inhibition at 100 µM on PfSpdS [3] turned out to be 17 ± 9.4%.

B1: Plasmodium falciparum spermidine synthase lacking 39 amino acids at the N-terminus (enzyme, UniProt Q8II73 40-321, looked up)
chain: SKKWFSEFSIMWPGQAFSLKIKKILYETKSKYQNVLVFESTTYGKVLVLDGVIQLTEKDEFAYHEMMTHVPMTVSKEPKNVLVVGGGDGGIIRELCKYKSVENIDICEIDETVIEVSKIYFKNISCGYEDKRVNVFIEDASKFLENVTNTYDVIIVDSSDPIGPAETLFNQNFYEKIYNALKPNGYCVAQCESLWIHVGTIKNMIGYAKKLFKKVEYANISIPTYPCGCIGILCCSKTDTGLTKPNKKLESKEFADLKYYNYENHSAAFKLPAFLLKEIENI
notes: Plasmodium falciparum spermidine synthase (EC 2.5.1.16), protein lacking 39 amino acids at the N-terminus, cloned into the p15-TEV-LIC vector, from SGC Toronto; Crystallised with compound 8 and MTA; Three molecules in the asymmetric unit; subunits B and C form the homodimer; also called PfSpdS; 39 amino acid N-terminal truncated PfSpdS protein; source: expression and isolation according to Dufe …
Take B1: in data set [6], the binding result is listed as “binds”.

The term IC50 denotes the midpoint of a concentration-inhibition curve. By inhibition is commonly meant the drop in the measured response relative to a control, in per cent. Broadly, the Ki is the dissociation constant of the complex between target and ligand, obtained from inhibition or displacement. Higher therefore signals weaker binding. As usually defined, the Km is the concentration of substrate that gives half-maximal velocity.
